Assay results from the NIST ThermoML archive (doi:10.1016/j.jct.2015.03.019).
± gives the expanded uncertainty stated by the source.

Key:
[1] = Molar enthalpy of transition or fusion; conditions: Crystal; Adiabatic calorimetry
[2] = for molar entropy: Small (less than 1 g) adiabatic calorimetry; for vapor or sublimation pressure: Transpiration method

CC(C)(C)c1ccc(Oc2ccccc2)cc1 [4-tert-butylphenyl phenyl ether]
Conditions	Molar enthalpy of transition or fusion [kJ/mol]
[1]	21.99 ± 0.14

molar entropy [J/K/mol], [2], 101.33 kPa
Conditions	Crystal	Liquid
5 K	0.2278 ± 0.032	–
10 K	1.746 ± 0.17	–
15 K	5.404 ± 0.17	–
20 K	10.73 ± 0.33	–
25 K	17.29 ± 0.42	–
30 K	24.28 ± 0.42	–
35 K	31.51 ± 0.42	–
40 K	38.91 ± 0.42	–
45 K	46.23 ± 0.5	–
50 K	53.46 ± 0.58	–
60 K	67.76 ± 0.67	–
70 K	81.81 ± 0.83	–
80 K	95.45 ± 1	–
90 K	108.59 ± 1.1	–
100 K	121.31 ± 1.2	–
110 K	133.7 ± 1.2	–
120 K	145.84 ± 1.4	–
130 K	157.73 ± 1.4	–
140 K	169.45 ± 1.6	–
150 K	180.92 ± 1.7	–
160 K	192.23 ± 1.8	–
170 K	203.29 ± 1.8	–
180 K	214.26 ± 2	–
190 K	225.07 ± 2.1	–
200 K	235.72 ± 2.2	–
210 K	246.36 ± 2.2	–
220 K	256.83 ± 2.2	–
230 K	267.23 ± 2.4	–
240 K	277.54 ± 2.5	–
250 K	287.85 ± 2.6	–
260 K	298.16 ± 2.7	–
270 K	308.47 ± 2.8	–
280 K	318.69 ± 2.8	–
290 K	328.92 ± 3	–
298.15 K	337.23 ± 3.2	–
300 K	339.15 ± 3.1	–
310 K	349.29 ± 3.2	–
320 K	359.35 ± 3.2	–
327.84 K	367.17 ± 3.2	434.26 ± 3.8
330 K	–	436.76 ± 3.8
340 K	–	448.48 ± 4
350 K	–	460.04 ± 4
360 K	–	471.51 ± 4.2
370 K	–	482.82 ± 4.2

Conditions	mass density [kg/m3]
[2], 298.15 K, 101.33 kPa, Crystal, Pycnometric method	997.5 ± 4.5

[2]
Conditions	Triple point temperature [K]	vapor or sublimation pressure [kPa]
298.46 K, Crystal	–	4.8e-05 ± 3e-06
299.37 K, Crystal	–	5.3e-05 ± 3e-06
300.45 K, Crystal	–	6.1e-05 ± 4e-06
303.52 K, Crystal	–	9.5e-05 ± 5e-06
306.47 K, Crystal	–	0.000135 ± 7e-06
310.47 K, Crystal	–	0.000222 ± 1.1e-05
310.5 K, Crystal	–	0.000229 ± 1.2e-05
312.53 K, Crystal	–	0.000285 ± 1.5e-05
314.45 K, Crystal	–	0.000363 ± 1.9e-05
315.5 K, Crystal	–	0.000405 ± 2.1e-05
316.51 K, Crystal	–	0.000466 ± 2.6e-05
317.52 K, Crystal	–	0.00055 ± 3e-05
318.5 K, Crystal	–	0.000621 ± 3.2e-05
319.52 K, Crystal	–	0.000689 ± 3.5e-05
320.55 K, Crystal	–	0.000755 ± 3.9e-05
321.53 K, Crystal	–	0.000855 ± 4.4e-05
322.52 K, Crystal	–	0.00095 ± 4.8e-05
323.45 K, Crystal	–	0.001031 ± 5.5e-05
323.55 K, Crystal	–	0.001042 ± 5.5e-05
324.53 K, Crystal	–	0.001212 ± 6.6e-05
Crystal, Adiabatic calorimetry	327.84 ± 0.04	–
